Measurements as given in patent US20070197432A1, “Peptides for preventing, diagnosing and treating animal and/or human leptospirosis” (priority 2002, published 2007).
No end group written: not given here.

Columns and labels:
[1] = system: Leptospira interrogans sl serovar canicola; test: Trial 2: gerbils immunized with PP-KLH or PP, 10^−2 canicola challenge; format: in vivo, gerbil; design: Mortality rate / Survival rate: unit not given here
Protocol: An immunization/challenge trial was carried out in order to evaluate the protection that can be provided by the PP peptide (SEQ ID No. 1) coupled or not coupled to the KLH protein.
This construct is administered subcutaneously without adjuvant, and PBS is administered by the same route as the negative control (batch 3). • Batch 1: 12 gerbils, 2 injections of 30 μg of PP-KLH in 300 μl. • Batch 2: 12 gerbils, 2 injections of 30 μg of PP in 300 μl. • Batch 3: 15 gerbils, 2 injections of PBS in 300 A1.
The two injections in a volume of 300 μl were administered subcutaneously, two weeks apart. A challenge by intraperitoneal injection of 0.5 ml of a serovar canicola leptospiral culture with a titer of 90 to 100 TU (turbidimetry) diluted to 10^−2 was administered three weeks after the second injection.

[2] = system: Leptospira interrogans sl serovar canicola; test: Trial 1: gerbils immunized with PP-KLH, 10^−2.5 canicola challenge; format: in vivo, gerbil
Protocol: An immunization/challenge protocol was carried out in order to evaluate the protection that can be provided by the PP peptide (SEQ ID No. 1) coupled to the KLH protein.
(§1) This construct is administered subcutaneously without adjuvant, with PBS as a negative control (batch 2).
Batch 1: 10 gerbils, 2 injections of 30 μg of PP-KLH in 300 μl, subcutaneously.
Batch 2: 10 gerbils, 2 injections of PBS in 300 μl.
The two injections in a volume of 300 μl were administered subcutaneously, two weeks apart. A challenge by intraperitoneal injection of 0.5 ml of a canicola culture with a titer of 90 to 100 TU (turbidimetry) diluted to 10^−2.5 was administered two weeks after the second injection. • Antigenic response: Monitoring by ELISA of the immune response of the gerbils against the PP peptide

[3] = Dogs immunized with PP-KLH, immunization phase (tolerance, weight); format: in vivo, dog
Protocol: (§2) An immunization/challenge protocol was carried out in order to evaluate the protection that can be provided by the PP peptide (SEQ ID No. 1) NH2-coupled to the KLH carrier protein (FIG. 14).
as §1
(§3) Batch 1: 6 SPF dogs, 2 injections of 250 μg of PP-KLH in 1 ml subcutaneously.
(§4) Batch 2: 6 SPF dogs, control.
(§5) The two injections were administered subcutaneously, […].
The immunization phase was carried out from D-39 to D-1, (D0 being the day of challenge), with the first injection on D-35 and second on D-18.
During this phase, the weight was measured on D-39, D-35, D-28, and D-7 (FIG. 15).

[4] = system: Leptospira interrogans sl serovar canicola; test: Dogs immunized with PP-KLH, canicola challenge: clinical, hematological and biochemical parameters; format: in vivo, dog
Protocol: as §2, §1, §3, §4, §5
The challenge (CH) was carried out on D0.
The animals are given a challenge at a rate of one virulent culture of 4 to 6 days. For an immunized batch and a control batch, each animal received, in each eye, 0.3 ml of the culture having a titer of 120 TU (i.e. 2×10^8 leptospires per ml) and, intraperitoneally, 4 ml of the same culture diluted ten-fold.
The challenge phase was carried out from D-1 to […], with the challenge on D0.
During this phase, the temperature was measured on D0, D1, D2, D3, D4, D5, D6 and D7.
The hematological parameters were measured on D-1, D3, D7, D10, D14, D15 and D41.
The biochemical parameters were measured on D-1, D3, D7, D10, D14, D18, D25 and D41.

[5] = Accumulation of the two trials, survival

With “PP-KLH: PP peptide with cysteine added at the N-terminal position, coupled via sulfo-MBS to KLH carrier protein (keyhole limpet hemocyanin) (KAKPVQKLDDDDDGDDTYKEERHNK; not fully specified (N-terminus))” the Mortality rate ([1]; 10^−2 canicola challenge) was 8.3, the Survival rate ([1]; 10^−2 canicola challenge) was 91.6 and the “mortality in the group (dead/number)” value ([1]; 10^−2 canicola challenge) was 1/12. The gerbils at challenge ([1]; 10^−2 canicola challenge, D0) was 12, the “mortality of gerbils (dead/number)” value ([1]; 10^−2 canicola challenge, D4) was 0/12 and the “mortality of gerbils (dead/number)” value ([1]; 10^−2 canicola challenge, D5) was 0/12. For the same substance, the “mortality of gerbils (dead/number)” value ([1]; 10^−2 canicola challenge, D6) was 0/12, the “mortality of gerbils (dead/number)” value ([1]; 10^−2 canicola challenge, D7) was 0/12 and the “mortality of gerbils (dead/number)” value ([1]; 10^−2 canicola challenge, D8) was 0/12. The “mortality of gerbils (dead/number)” value ([1]; 10^−2 canicola challenge, D9) was 1/12, the “mortality of gerbils (dead/number)” value ([1]; 10^−2 canicola challenge, D10) was 0/11 and the “mortality of gerbils (dead/number)” value ([1]; 10^−2 canicola challenge, D11) was 0/11. For the same substance, the “mortality of gerbils (dead/number)” value ([1]; 10^−2 canicola challenge, D12) was 0/11, the “mortality of gerbils (dead/number)” value ([1]; 10^−2 canicola challenge, D13) was 0/11 and the “mortality of gerbils (dead/number)” value ([1]; 10^−2 canicola challenge, D14) was 0/11. For the same substance, the “mortality of gerbils (dead/number)” value ([1]; 10^−2 canicola challenge, D15) was 0/11, the “mortality of gerbils (dead/number)” value ([1]; 10^−2 canicola challenge, D16) was 0/11 and the “mortality of gerbils (dead/number)” value ([1]; 10^−2 canicola challenge, D17) was 0/11. The “mortality of gerbils (dead/number)” value ([1]; 10^−2 canicola challenge, D28) was 0/11, the “p, log-rank test versus control” value [1, 5] was <2.10^−3 and the “χ^2, log-rank test versus control” value [1, 5] was 10.1. For the same substance, the “p, log-rank test versus control” value ([1]; Experiment 2, survival) was <1.10^−2, the “χ^2, log-rank test versus control” value ([1]; Experiment 2, survival) was 6.84 and the Mortality rate ([2]; 10^−2.5 canicola challenge) was 6/10. For the same substance, the Survival rate ([2]; 10^−2.5 canicola challenge) was 4/10, the gerbils alive ([2]; 10^−2.5 canicola challenge, D4) was 10 and the gerbils alive ([2]; 10^−2.5 canicola challenge, D5) was 10. For the same substance, the gerbils alive ([2]; 10^−2.5 canicola challenge, D6) was 7, the gerbils alive ([2]; 10^−2.5 canicola challenge, D7) was 5 and the gerbils alive ([2]; 10^−2.5 canicola challenge, D8) was 4. It also gave a gerbils alive ([2]; 10^−2.5 canicola challenge, D9) of 4, a gerbils alive ([2]; 10^−2.5 canicola challenge, D10) of 4 and a gerbils alive ([2]; 10^−2.5 canicola challenge, D11) of 4. It also gave a gerbils alive ([2]; 10^−2.5 canicola challenge, D30) of 4, a gerbils alive ([2]; 10^−2.5 canicola challenge, before challenge) of 10 and a gerbils alive ([2]; 10^−2.5 canicola challenge, day of challenge) of 10. The Survival rate ([2]; 10^−2.5 canicola challenge, listed as PP peptide coupled to the KLH protein) was 4 of the 10, the “p, log-rank test versus control” value ([2]; Experiment 1, survival) was <7.10^−2 and the “tolerance in immunization phase” value ([3]; SPF dogs, 2 s.c. injections of 250 μg without adjuvant) was “complete tolerance”. For the same substance, the “p, evolution of mean increase in weights, control versus immunized dogs (not significantly different)” value ([3]; between D-35 and D-7) was 0.8509, the thrombocytopenia ([4]; after challenge) was “significantly more pronounced in the controls than in the immunized dogs” and the “p, difference in temperature, control versus immunized dogs (controls more pronounced febrile peak)” value ([4]; at D3 and D4) was under 0.05. For the same substance, the “P, evolution of mean increase in temperature, control versus immunized dogs (not significantly different)” value ([4]; between D0 and D7) was 0.7944, the “P, evolution of white blood cells, control versus immunized dogs (not significantly different)” value ([4]; between D-1 and D41) was 0.4407 and the “p, evolution of mean variation in platelets, control versus immunized dogs (significantly different)” value ([4]; between D-1 and D41) was 0.0412. The “mortality following the challenge” value ([4]; dogs, immunized and control) was “No mortality”, the “protection against a canicola challenge in dogs” value ([4]; overall conclusion) was “makes it possible to induce protection” and the “p, tendency for higher urea level in the controls (no significant difference)” value ([4]; period of acute effect in the kidneys (D0-D10)) was under 0.15. For the same substance, the “p, urea level in the controls significantly higher” value ([4]; period of kidney colonization (D10-D41)) was under 0.02.
